Ends that are not written are not given here.
Experiments:
RPMI-8226 = assay: Cell growth/cytotoxicity, multiple myeloma cell line RPMI-8226; assay type: cell-based
Experimental: Cells were seeded into 96-well plates and ATX-101, kinase inhibitors (SB203580 and BIRB0796), and polyIC were added alone or in combination at the indicated concentrations. Cells were exposed continuously and harvested every day for the next four days using the MTT (3-(4.5-Dimethylthiazol-2-yl)-2.5 diphenyl-tetrazolium bromide) assay (Gilljam et al., 2009, supra). The average from at least 4 wells was used to calculate cell survival.
To further elucidate whether ATX-101 directly affected the MAPK and PI3K pathways, we analyzed the phosphorylation levels of downstream kinases in JJN-3 cells at different time points after ATX-101 addition. The phosphorylation of Akt and the p70 S6 kinase (downstream of mTOR) were both decreased by ATX-101 treatment.

PCNA = PCNA (Homo sapiens, UniProt P12004); assay: Microscale thermophoresis (MST) of peptide interaction with PCNA; assay type: binding
Experimental: Microscale thermophoresis (MST) was used to determine the dissociation constant for various APIM containing peptides.
PCNA was labeled with a fluorescent molecule. The concentration of PCNA was kept constant, whereas dilutions of each APIM containing peptide were prepared (1:1).

Sequence of PCNA (P12004 whole entry): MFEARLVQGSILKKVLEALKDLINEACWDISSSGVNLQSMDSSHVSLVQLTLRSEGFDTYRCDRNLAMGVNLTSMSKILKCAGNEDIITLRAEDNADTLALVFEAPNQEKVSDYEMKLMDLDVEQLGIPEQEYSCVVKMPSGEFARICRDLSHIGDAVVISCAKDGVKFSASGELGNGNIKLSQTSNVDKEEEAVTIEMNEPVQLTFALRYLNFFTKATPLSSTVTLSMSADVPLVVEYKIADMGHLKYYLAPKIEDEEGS

Ac-MDRWLVKWKKKRKIRRRRRRRRRRR [ATX-101]
cytotoxic effects of melphalan in combination with kinase inhibitors and ATX-101 (RPMI-8226): enhanced the cytotoxic effects of melphalan | growth-inhibitory effects of ERK5 and MEK1 inhibitors in combination with ATX-101 (RPMI-8226): increased the growth-inhibitory effects of ERK5 and MAPK kinase 1 (MEK1) inhibitors | interaction with PCNA by MST (in words) (PCNA): stronger interactions with PCNA than ATX-A

From patent US11246907B2, “Immunosuppressive agents and their use in therapy” (Norwegian University of Science and Technology, priority 2013, dated 2022)
